# Assay results as given in article PMC3503319 (Biochemistry, 2010).
# Target: B. subtilis DAPAS (Bs-DAPAS) (Bacillus subtilis, UniProt P53555)
# Assay: X-ray crystal structure, […] Å
# Assay type: binding
# Conditions: active site
# Chain of B. subtilis DAPAS (Bs-DAPAS) (P53555 whole entry, looked up): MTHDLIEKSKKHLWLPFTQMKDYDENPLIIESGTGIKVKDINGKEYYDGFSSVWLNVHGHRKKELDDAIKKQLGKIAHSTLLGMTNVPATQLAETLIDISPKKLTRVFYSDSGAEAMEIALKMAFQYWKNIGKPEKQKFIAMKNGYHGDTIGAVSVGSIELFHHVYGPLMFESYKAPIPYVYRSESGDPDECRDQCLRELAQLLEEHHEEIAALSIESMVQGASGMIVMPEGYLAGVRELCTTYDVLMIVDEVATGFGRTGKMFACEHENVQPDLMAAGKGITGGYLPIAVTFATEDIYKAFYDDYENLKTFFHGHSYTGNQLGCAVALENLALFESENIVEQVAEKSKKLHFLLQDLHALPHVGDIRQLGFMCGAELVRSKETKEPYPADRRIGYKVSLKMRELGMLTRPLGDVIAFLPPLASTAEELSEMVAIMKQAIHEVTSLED
structure (smiles),measurement,value
Cc1ncc(COP(=O)(O)O)c(C=O)c1O [PLP],"X-ray crystal structure, 1.9 Å (cocrystallization, 1 mM PLP)","the crystal structure of the B. subtilis DAPAS apoprotein, its PLP-bound complex"
